Assay results from patent publication US7166618B2, “Nitrosated and nitrosylated cyclooxygenase-2 inhibitors, compositions and methods of use” (NitroMed, Inc., priority 1999, dated 2007).

Molecular target: T1, ovine COX-2 (Ovis aries, UniProt P79208)
T1 sequence (P79208 17-603): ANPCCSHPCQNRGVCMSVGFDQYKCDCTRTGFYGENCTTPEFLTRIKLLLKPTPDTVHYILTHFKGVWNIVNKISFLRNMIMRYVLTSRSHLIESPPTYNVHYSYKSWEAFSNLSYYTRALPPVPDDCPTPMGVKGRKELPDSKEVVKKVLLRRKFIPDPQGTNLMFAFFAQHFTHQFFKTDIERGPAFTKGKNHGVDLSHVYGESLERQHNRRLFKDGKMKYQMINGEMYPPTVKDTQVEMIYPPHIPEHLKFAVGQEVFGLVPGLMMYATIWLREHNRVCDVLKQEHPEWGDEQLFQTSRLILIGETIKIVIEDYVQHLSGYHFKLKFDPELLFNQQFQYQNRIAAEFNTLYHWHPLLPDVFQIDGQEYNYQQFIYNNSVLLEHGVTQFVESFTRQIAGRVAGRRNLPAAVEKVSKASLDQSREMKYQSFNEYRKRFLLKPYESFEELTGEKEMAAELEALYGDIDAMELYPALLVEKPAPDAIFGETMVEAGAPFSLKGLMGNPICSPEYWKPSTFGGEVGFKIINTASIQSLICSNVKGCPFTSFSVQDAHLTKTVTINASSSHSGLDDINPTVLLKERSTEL
Experiment: biochemical
Assay type: biochemical
Description: The ovine COX-1 and COX-2 activities and the measurement of the prostaglandin products synthesized were performed using the COX Inhibitor Screening Assay (Cayman Chemical, Ann Arbor, Mich., which also contained the Prostaglandin Screening EIA Kit, used for prostaglandin quantification). The test compounds were dissolved at 50 times the highest final reaction concentration in DMSO or any other suitable solvent as stock solutions. These stock solutions were then diluted in the same solvent. Eight glass test tubes (13×100 mm) were placed in a 37° C. water bath. To each test tube was added 950 μL of reaction buffer (0.1 M Tris-HCl, pH 8.0, containing 5 mM EDTA, and 2 mM phenol), 10 μL of 100 µM heme solution, and 10 μL (5 units) of either ovine COX-1 or COX-2 and the resulting mixture was incubated with the enzyme for 2 minutes. Twenty μL of the solvent was added to one tube (100% initial activity or solvent control) and 20 μL of each dilution of the test compound was added to one tube each. Each tube was vortexed immediately after the addition. The enzyme was incubated with the inhibitor for 3.5 minutes at 37° C. The enzymatic reaction was then initiated by the addition of 10 μL of freshly prepared 10 mM arachidonic acid (neutralized with KOH), vortexed and then incubated for 2 minutes at 37° C. The reaction was terminated by the addition of 50 μL of 1 M HCl, vortexed and placed at room temperature. One hundred microliters of a saturated stannous chloride solution (50 mg/mL of 0.1 M HCl) was added and the reaction mixture was allowed to stand at room temperature for at least 5 minutes.
The prostaglandins (PG) produced in the reactions were assayed, after a 2,000-fold dilution, using the Prostaglandin Screening EIA Kit (Cayman Chemical, Ann Arbor, Mich.). The assay-contains an antibody with broad specificity for all the prostaglandin families (PGF, PGE, PGD, and thromboxane B-type) synthesized in the COX-1/COX 2 reactions. The synthesized prostaglandin competes with a PG-tagged acetylcholine esterase tracer for binding to the PG antibody. Binding of synthesized PG lowers the calorimetric development of the Ellman's Reagent (computed as % B/B0). The actual amount of synthesized PG was interpolated from a standard curve using known amounts of supplied prostaglandin E2 (PGE2) (PGE2 concentration vs. % B/B0). The data generated were the mean±standard deviation of triplicate wells in the EIA for a single reaction at a given inhibitor concentration.

`NS(=O)(=O)c1ccc(-c2c(-c3ccccc3)noc2CO[N+](=O)[O-])cc1` [Example 2b, 4-(5-((Nitrooxy)methyl)-3-phenylisoxazol-4-yl)benzenesulfonamide] showed an IC50 of 1.2 µM.
